US20040254173A1, “Modulation of dopamine responses with substituted (S)-2,3-benzodiazepines” (priority 2003, published 2004)

What was measured:
[1] = system: apomorphine-induced hypothermia, stereotypies and climbing; assay: Low Dose Apomorphine Test in the mouse; format: in vivo; details: for STEREOTYPY (intensity score), 20 min after apomorphine, mean ± s.e.m. / STEREOTYPY (intensity score), 50 min after apomorphine, mean ± s.e.m.: 4 point scale (0-3); for CLIMBING (No. of mice), 20 minutes after apomorphine / CLIMBING (No. of mice), 50 minutes after apomorphine: 6 mice per group; for Rectal Temperature, 30 min after apomorphine, mean ± s.e.m. / Rectal Temperature, 60 min after apomorphine, mean ± s.e.m. / Rectal Temperature, before apomorphine, mean ± s.e.m.: mouse; for Rectal Temperature, 30 min after apomorphine, mean change from control / Rectal Temperature, 60 min after apomorphine, mean change from control / STEREOTYPY (intensity score), 20 min after apomorphine, mean change from control / STEREOTYPY (intensity score), 50 min after apomorphine, mean change from control: vs vehicle; for Rectal Temperature, before apomorphine, mean ± s.e.m.: 30 min after test substance
From the text: Racemic tofisopam, (R)-tofisopam and (S)-tofisopam were investigated in the Low Dose Apomorphine Test in the mouse to evaluate their pro- or anti-dopaminergic activity following intraperitoneal (i.p.) administration of apomorphine. Apomorphine, at a low dose, induces hypothermia, stereotypies and climbing. All three of these symptoms are potentiated by dopaminergic agonists and antagonized by dopamine antagonists, such as classical neuroleptics. The Low Dose Apomorphine Test, thus serves to detect pro- or antidopaminergic activity. The test was performed according to the protocols described by Chermat and Poncelet. See, Chermat R., Poncelet M., “Antagonisme des redressements, des stéréotypies et de l'hypotheimie induits par 1 ou 16 mg.kg-1 d'apomorphine,” J. Pharmacol., 14, 93-97, 1983.
Male mice of Rj: NMRI strain, 23-26 g body weight range were supplied by Elevage Janvier, 53940 Le Genest-Saint-Isle, France. The animals were delivered to the laboratory at least 3 days before the experiment and, upon arrival, were housed 10 per cage in macrolon cages (25×19×13 cm) containing wood shavings (Litalabo-SPPS, 95100 Argenteuil, France) with free access to food (UAR 113-UAR, 91360 Epinay-sur-Orge, France) and tap water (i.e. non-fasted) until tested. The animal house was maintained under artificial lighting (12 hours) between 7.00 and 19.00 in a controlled ambient temperature of 21±1° C., and relative humidity maintained at 40-70%.
The different treatments were equally distributed between the animals. During the experiment, each animal within a cage received the same treatment. Animals within a cage were individually marked on the tail with an indelible pen.
The experiment was conducted blind with treatment vials labeled A, B, C etc., according to a standardized coding procedure. The evaluation of the different treatments was balanced over time by testing successive series of individual animals from each treatment group in a fixed rotation (A, B, C, etc.). Animals were sacrificed at the end of the experiment by exposure to CO2.
Three compounds, racemic tofisopam, (R)-tofisopam and (S)-tofisopam were tested in the Low Dose Apomorphine Test. Each of these three compounds was dosed as a dispersion in 0.2% hydroxypropylmethylcellulose (HPMC) (Sigma), in sterile physiological saline (Laboratoire Aguettant).
Two reference standards were also dosed. Bromocriptine, methanesulfonate (Sigma), a known dopamine agonist, and haloperidol (Sigma), a known dopamine antagonist, were dispersed in 0.2% HPMC in sterile physiological saline.
Apomorphine hydrochloride, the dopamine mimetic employed in the assay, was dissolved in water for injectable preparation (Laboratoire Aguettant). Dosing: All of the dosed substances were administered in a volume of 10 ml/kg. The doses are expressed in mg/kg of supplied substance.
6 mice were studied per group. The test was performed blind.
Racemic tofisopam, (R)-tofisopam and (S)-tofisopam were administered at doses of 16, 32 and 64 mg/kg, administered intraperitonealy (i.p.), 30 minutes prior to administration of apomorphine.
The rectal temperature of the mice was measured prior to apomorphine dosing using a rectal probe (Physitemp Instruments Digital Laboratory Thermometer Model BAT-12). The mice were then placed in individual Plexiglas cages (10×6×4 cm) attached with the opening against a vertical wire grid.
The mice were then injected subcutaneously (s.c.) with apomorphine (1 mg/kg). Rectal temperature was measured 30 and 60 minutes after the injection of apomorphine.
The intensity of stereotypies (sniffing, licking, gnawing), were scored at 20 minutes and 50 minutes after injection of apomorphine on a 4 point scale (0-3). The presence (1) or absence (0) of climbing against the wire grid wall, were also assessed 20 and 50 minutes after injection of apomorphine.
The reference standards bromocriptine (16 mg/kg) and haloperidol (0.5 mg/kg), were administered under the same experimental conditions.

[2] = system: central BZ receptors; details: cited from earlier work
[3] = target: peripheral BZ receptors (Homo sapiens, UniProt P30536); details: cited from earlier work
[4] = system: aggression in mice; details: Ito 1981; cited from earlier work
[5] = system: muricide (mouse killing behavior) in rats; details: Ito 1981; cited from earlier work
[6] = system: anti-noradrenergic effects; details: Ito 1981; cited from earlier work
[7] = system: narcosis; details: mice; U.S. Pat. No. 4,322,346; cited from earlier work
[8] = 16 mg/kg i.p. 30 min before apomorphine 1 mg/kg s.c.
[9] = 32 mg/kg i.p. 30 min before apomorphine 1 mg/kg s.c.
[10] = 64 mg/kg i.p. 30 min before apomorphine 1 mg/kg s.c.

Chain of peripheral BZ receptors (P30536 whole entry): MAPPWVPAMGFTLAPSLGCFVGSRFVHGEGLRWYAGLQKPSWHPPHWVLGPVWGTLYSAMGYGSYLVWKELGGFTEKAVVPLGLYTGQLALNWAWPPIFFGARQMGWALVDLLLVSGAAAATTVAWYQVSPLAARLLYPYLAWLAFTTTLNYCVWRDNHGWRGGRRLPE

Compound: CCC1C(C)=NN=C(c2ccc(OC)c(OC)c2)c2cc(OC)c(OC)cc21 (racemic) [Racemic tofisopam, racemic-1-(3,4-dimethoxyphenyl)-4-methyl-5-ethyl-7,8-dimethoxy-5H-2,3-benzodiazepine]
- STEREOTYPY (intensity score), 20 min after apomorphine, mean ± s.e.m. [1, 8]: 3.0 ± 0.0
- STEREOTYPY (intensity score), 50 min after apomorphine, mean ± s.e.m. [1, 8]: 0.7 ± 0.2
- CLIMBING (No. of mice), 20 minutes after apomorphine [1, 8]: 6 No. of mice
- CLIMBING (No. of mice), 50 minutes after apomorphine [1, 8]: 3 No. of mice
- Rectal Temperature, 30 min after apomorphine, mean ± s.e.m. [1, 8]: 35.3 ± 0.6 °C
- Rectal Temperature, 60 min after apomorphine, mean ± s.e.m. [1, 8]: 36.9 ± 0.3 °C
- Rectal Temperature, 30 min after apomorphine, mean change from control [1, 8]: +0.2 °C
- Rectal Temperature, 60 min after apomorphine, mean change from control [1, 8]: +0.2 °C
- STEREOTYPY (intensity score), 20 min after apomorphine, mean change from control [1, 8]: +0.8
- STEREOTYPY (intensity score), 50 min after apomorphine, mean change from control [1, 8]: −0.3
- Rectal Temperature, before apomorphine, mean ± s.e.m. ([1]; 16 mg/kg i.p.): 37.3 ± 0.1 °C
- STEREOTYPY (intensity score), 20 min after apomorphine, mean ± s.e.m. [1, 9]: 2.8 ± 0.2
- STEREOTYPY (intensity score), 50 min after apomorphine, mean ± s.e.m. [1, 9]: 0.8 ± 0.3
- CLIMBING (No. of mice), 20 minutes after apomorphine [1, 9]: 6 No. of mice
- CLIMBING (No. of mice), 50 minutes after apomorphine [1, 9]: 5 No. of mice
- Rectal Temperature, 30 min after apomorphine, mean ± s.e.m. [1, 9]: 34.3 ± 0.5 °C
- Rectal Temperature, 60 min after apomorphine, mean ± s.e.m. [1, 9]: 36.6 ± 0.3 °C
- Rectal Temperature, 30 min after apomorphine, mean change from control [1, 9]: −0.8 °C
- Rectal Temperature, 60 min after apomorphine, mean change from control [1, 9]: −0.1 °C
- STEREOTYPY (intensity score), 20 min after apomorphine, mean change from control [1, 9]: +0.6
- STEREOTYPY (intensity score), 50 min after apomorphine, mean change from control [1, 9]: −0.2
- Rectal Temperature, before apomorphine, mean ± s.e.m. ([1]; 32 mg/kg i.p.): 37.1 ± 0.2 °C
- STEREOTYPY (intensity score), 20 min after apomorphine, mean ± s.e.m. [1, 10]: 2.3 ± 0.2
- STEREOTYPY (intensity score), 50 min after apomorphine, mean ± s.e.m. [1, 10]: 1.3 ± 0.2
- CLIMBING (No. of mice), 20 minutes after apomorphine [1, 10]: 6 No. of mice
- CLIMBING (No. of mice), 50 minutes after apomorphine [1, 10]: 4 No. of mice
- Rectal Temperature, 30 min after apomorphine, mean ± s.e.m. [1, 10]: 33.9 ± 0.5 °C
- Rectal Temperature, 60 min after apomorphine, mean ± s.e.m. [1, 10]: 36.3 ± 0.3 °C
- Rectal Temperature, 30 min after apomorphine, mean change from control [1, 10]: −1.2 °C
- Rectal Temperature, 60 min after apomorphine, mean change from control [1, 10]: −0.4 °C
- STEREOTYPY (intensity score), 20 min after apomorphine, mean change from control [1, 10]: +0.1
- STEREOTYPY (intensity score), 50 min after apomorphine, mean change from control [1, 10]: +0.3
- Rectal Temperature, before apomorphine, mean ± s.e.m. ([1]; 64 mg/kg i.p.): 37.2 ± 0.2 °C
- behaviour on apomorphine-induced hypothermia (rectal temperature) ([1]; 64 mg/kg, thirty and sixty minute time points, trend not statistically significant): weak dopamine antagonist
- behaviour on apomorphine-induced stereotypies ([1]; 16 and 32 mg/kg, twenty minute time point, significant only at 16 mg/kg): strong dopamine agonist
- interaction with central BZ receptors [2]: does not interact
- binding to peripheral BZ receptors [3]: binds only weakly

Compound: CCC1C(C)=NN=C(c2ccc(OC)c(OC)c2)c2cc(OC)c(O)cc21 (centres unmarked) [1-(3,4-Dimethoxyphenyl)-4-methyl-5-ethyl-7-hydroxy-8-methoxy-5H-2,3-benzodiazepine]
- inhibition of aggression in mice [4]: 0%
- inhibition of muricide [5]: 20%
- antinoradrenergic effect [6]: no antinoradrenergic effect

Compound: CCC1C(C)=NN=C(c2ccc(O)c(OC)c2)c2cc(OC)c(O)cc21 (centres unmarked) [1-(3-Methoxy-4-hydroxyphenyl)-4-methyl-5-ethyl-7-hydroxy-8-methoxy-5H-2,3-benzodiazepine]
- inhibition of aggression in mice [4]: 28.6%
- inhibition of muricide [5]: 20%
- antinoradrenergic effect [6]: a measurable antinoradrenergic effect

Compound: CCC1C(C)=NN=C(c2ccc(O)c(OC)c2)c2cc(OC)c(OC)cc21 (centres unmarked) [1-(3-Methoxy-4-hydroxyphenyl)-4-methyl-5-ethyl-7,8-dimethoxy-5H-2,3-benzodiazepine]
- inhibition of aggression in mice [4]: 0%
- inhibition of muricide [5]: 0%
- antinoradrenergic effect [6]: a measurable antinoradrenergic effect
- narcosis-potentiating activity [7]: narcosis-potentiating activity
